In patent US20240299416A1, “TREATMENT OF NF-kB-MEDIATED DISEASE” (ReveraGen BioPharma, Inc., priority 2021, published 2024):
Where two headings read alike, the source gives them in different places.

Columns and labels:
Format in all cases: in vivo, human
[1] = Physician-reported adverse events, VBP15-LTE/DSUR vs published corticosteroid studies
Procedure: Study visits took place quarterly, including assessment of clinical laboratory results, vital signs, and AEs. All AEs were coded using the Medical Dictionary for Regulatory Activities (MedDRA version 19.0) system for reporting (preferred term and system organ class). Clinical efficacy assessments were performed at baseline of the VBP15-002 study, at six months (end of VBP15-003 study), and the 12-month midpoint visit of the VBP15-LTE study.
The incidences of physician-reported AEs typically for corticosteroid treatment were determined for participants that had been treated with vamorolone 6.0 mg/kg/day (for any duration), taken from the March 2019 Data Safety Update Report (DSUR) (pharmacovigilance report). Incidence rates of Cushingoid features, weight gain, hirsutism, and behavior change were studied (Table 8).

[2] = system: boys with DMD; assay: VBP15-LTE month 24 PODCI and wrist x-ray bone age
Text: In addition, 39/41 LTE participants had wrist x-ray at Month 24; the mean bone age to chronologic age difference was −1.1 (p<0.001, CI −1.5, −0.7), indicating possible skeletal maturation delay (Table 7).
PODCI is the Pediatrics Outcomes Data Collection Instrument (musculoskeletal disorders). The PODCI is a disease-specific questionnaire developed by the American Academy of Orthopedic Surgeons to measure general health and problems related to bone and muscle conditions in children. A significant increase in mean PODCI upper extremity and physical function standardized score was observed from LTE baseline to Month 24 (7.95±12.54, CI 1.003, 14.897, p=0.0278, n=15) for the combined 2.0 and 6.0 mg/kg/day initial dose group. At the same time, a non-significant decrease in mean PODCI transfer and basic mobility standardized score was observed (−4.38±22.68, CI −16.471, 7.703, p=0.451, n=16) (Table 7).

[3] = system: boys with DMD; assay: VBP15-003/VBP15-LTE motor outcomes over 18 months vs CINRG DNHS; settings: vs corticosteroid-naïve participants, ANCOVA
Text: Assessments of efficacy were motor outcomes (primary outcome: time to stand from supine [TTSTAND]; secondary outcomes: time to run/walk 10 meters [TTRW], time to climb four stairs [TTCLIMB], distance covered in 6-minute walk test [6MWT], and the North Star Ambulatory Assessment [NSAA]). 6MWT and NSAA were not assessed in most CINRG DNHS participants and were not compared to vamorolone-treated participants. According to standard operating procedures, clinical evaluators were trained to harmonize the CINRG vamorolone, CINRG DNHS, and CINRG prednisone studies. Reliability of these outcomes (percent coefficient of variation) has been reported for the VBP15-002/VBP15-003 studies. Assessments were done at baseline (VBP15-002 entry), 24 weeks (VBP15-003 last visit), and 18 months (VBP15-LTE midpoint assessment at 12 months).
Only participants completing VBP15-002 and VBP15-003 were eligible to enroll in VBP15-LTE. […]
Statistical analyses were done on paired longitudinal outcome data using an analysis of covariance (ANCOVA) approach with change from baseline (VBP15-002) to month 18 (midpoint of VBP15-LTE). […] For the vamorolone-treated participants, age was calculated as (date of informed consent minus birthdate)/365.25. For the DNHS participants, age was calculated as (date of baseline visit used minus birthdate)/365.25. […]

[4] = 6.0 mg/kg/day vamorolone, any duration, DSUR Mar. 2019

Bone Age by wrist x-ray, mean (SD) [2]: 6.8 (1.4), n = 39 yr | Bone Age difference to Chronologic Age, mean (SD) [2]: −1.1 (1.2), yr | Bone Age difference to Chronologic Age, mean (SD) ([2]; listed as vamorolone): −1.1 yr
Structure (SMILES): C[C@@H]1C[C@H]2[C@@H]3CCC4=CC(=O)C=C[C@]4(C)C3=CC[C@]2(C)[C@@]1(O)C(=O)CO [Vamorolone, 17α,21-dihydroxy-16α-methylpregna-1,4,9(11)-triene-3,20-dione]
Incidence of Cushingoid [1, 4]: 2.6% | Incidence of behavior change [1, 4]: 0%^2 | Incidence of hypertrichosis/hirsutism [1, 4]: 0% | Incidence of weight gain [1, 4]: 13.2% | Cushingoid features among the 14 probably/definitely related AEs ([1]; VBP15-LTE, DSMB report): 1 | TEAEs deemed definitely related ([1]; VBP15-LTE, DSMB report): three | TEAEs deemed possibly related ([1]; VBP15-LTE, DSMB report): 29 | TEAEs deemed probably related ([1]; VBP15-LTE, DSMB report): 11 | TEAEs deemed remotely related ([1]; VBP15-LTE, DSMB report): 37 | TEAEs deemed unrelated ([1]; VBP15-LTE, DSMB report): 402 | increased appetite among the 14 probably/definitely related AEs ([1]; VBP15-LTE, DSMB report): 2 | irritability among the 14 probably/definitely related AEs ([1]; VBP15-LTE, DSMB report): 1 | serious AEs (all deemed unrelated to study drug) ([1]; VBP15-LTE, DSMB report): three | weight gain among the 14 probably/definitely related AEs ([1]; VBP15-LTE, DSMB report): 10 | TTCLIMB, LS mean difference [3]: -0.34 s | TTRW, LS mean difference [3]: -0.84 s
